Laboratory results as given in the NIST ThermoML archive (doi:10.1016/j.fluid.2017.08.022).
± gives the expanded uncertainty stated by the source.

Details: for mass density: 100 kPa, Liquid, Buoyancy - hydrostatic balance with magnetic suspension - one sinker

CCCCCCCCCCn1cc[n+](C)c1.[Cl-] [1-decyl-3-methylimidazolium chloride]
Details | surface tension liquid-gas [mN/m]
317.84 K, Ring tensiometer | 27.09 ± 0.68
323.12 K, Wilhelmy Plate | 26.44 ± 0.13
323.14 K, Ring tensiometer | 26.85 ± 0.67
328.25 K, Wilhelmy Plate | 26.12 ± 0.13
328.26 K, Ring tensiometer | 26.45 ± 0.67
333.1 K, Wilhelmy Plate | 25.87 ± 0.13
333.13 K, Ring tensiometer | 26.14 ± 0.67
338.32 K, Wilhelmy Plate | 25.57 ± 0.13
338.37 K, Ring tensiometer | 25.54 ± 0.67
342.9 K, Wilhelmy Plate | 25.37 ± 0.13
342.95 K, Ring tensiometer | 25.7 ± 0.67
348.09 K, Wilhelmy Plate | 25.15 ± 0.13
348.13 K, Ring tensiometer | 25.61 ± 0.67
353.32 K, Wilhelmy Plate | 24.85 ± 0.13
353.33 K, Ring tensiometer | 24.76 ± 0.66
358.44 K, Wilhelmy Plate | 24.59 ± 0.12
358.57 K, Ring tensiometer | 24.5 ± 0.66

Details | mass density [kg/m3]
317.88 K | 973.64 ± 0.36
323.19 K | 970.69 ± 0.36
328.33 K | 968.07 ± 0.36
333.2 K | 964.94 ± 0.35
338.44 K | 962.23 ± 0.35
343.26 K | 958.59 ± 0.35
348.19 K | 956.59 ± 0.35
353.38 K | 953.42 ± 0.35
358.17 K | 950.62 ± 0.35
363.44 K | 947.62 ± 0.35

Cl.Cn1ccnc1 [1-methylimidazolium chloride]
Details | mass density [kg/m3]
333.65 K | 1195.33 ± 1
338.68 K | 1192.04 ± 1
343.7 K | 1187.98 ± 1
347.72 K | 1186.51 ± 1
353.06 K | 1184.13 ± 1
359.06 K | 1180.78 ± 1
363.86 K | 1177.41 ± 1

surface tension liquid-gas [mN/m]
Details | Ring tensiometer | Wilhelmy Plate
333.66 K | 67.02 ± 1.1 | –
333.67 K | – | 66.84 ± 0.07
338.7 K | 66.37 ± 1.1 | 66.5 ± 0.07
343.19 K | – | 66.13 ± 0.07
343.24 K | 66.48 ± 1.1 | –
348.1 K | 66.18 ± 1.1 | –
348.11 K | – | 65.78 ± 0.07
352.35 K | – | 65.4 ± 0.07
352.38 K | 65.96 ± 1.1 | –
359.12 K | 65.47 ± 1.1 | –
359.17 K | – | 64.87 ± 0.07
363.94 K | 65.12 ± 1.1 | –
364 K | – | 64.58 ± 0.07

CCCCn1cc[n+](C)c1.[Cl-] [1-butyl-3-methylimidazolium chloride]
surface tension liquid-gas [mN/m]
Details | Ring tensiometer | Wilhelmy Plate
303.11 K | 50.32 ± 1.2 | –
308.23 K | – | 49.64 ± 0.12
308.27 K | 50.3 ± 1.2 | –
313.06 K | – | 49.26 ± 0.12
313.07 K | 49.73 ± 1.2 | –
318.04 K | 49.68 ± 1.2 | –
318.07 K | – | 48.97 ± 0.12
323.1 K | 49.23 ± 1.2 | 48.58 ± 0.12
327.9 K | – | 48.24 ± 0.12
327.96 K | 48.8 ± 1.2 | –
333.82 K | – | 47.81 ± 0.12
333.85 K | 48.35 ± 1.2 | –
338.23 K | 48.24 ± 1.2 | –
338.28 K | – | 47.55 ± 0.12
342.85 K | 47.76 ± 1.2 | –
343.23 K | – | 47.16 ± 0.12
348.79 K | 47.38 ± 1.2 | –
348.85 K | – | 46.9 ± 0.12
353.81 K | – | 46.5 ± 0.12
353.87 K | 47.16 ± 1.2 | –
357.26 K | – | 46.29 ± 0.12
357.34 K | 46.88 ± 1.1 | –
364.83 K | 46.46 ± 1.1 | –
364.9 K | – | 45.76 ± 0.12

Details | mass density [kg/m3]
313.05 K | 1073.4 ± 0.52
318.21 K | 1070.57 ± 0.52
323.11 K | 1067.9 ± 0.52
328.37 K | 1065.5 ± 0.52
334.27 K | 1062.01 ± 0.52
338.89 K | 1059.46 ± 0.52
343.88 K | 1056.78 ± 0.52
349.01 K | 1054.21 ± 0.52
353.91 K | 1051.34 ± 0.52
357.34 K | 1049.12 ± 0.52
364.78 K | 1044.98 ± 0.52

CCC[n+]1ccn(C)c1.[Cl-] [1-methyl-3-propylimidazolium chloride]
surface tension liquid-gas [mN/m]
Details | Ring tensiometer | Wilhelmy Plate
308.21 K | 56.7 ± 1.2 | –
313.04 K | – | 55.61 ± 0.08
313.07 K | 56.45 ± 1.2 | –
318.32 K | 56.27 ± 1.2 | –
318.34 K | – | 55.41 ± 0.08
323.54 K | 55.92 ± 1.2 | 54.98 ± 0.08
328.41 K | – | 54.7 ± 0.08
328.46 K | 55.49 ± 1.2 | –
333.49 K | – | 54.42 ± 0.08
333.5 K | 55.37 ± 1.2 | –
337.95 K | – | 54.09 ± 0.08
338 K | 54.98 ± 1.2 | –
343.39 K | – | 53.8 ± 0.08
343.45 K | 54.58 ± 1.2 | –
348.34 K | – | 53.59 ± 0.08
348.39 K | 54.3 ± 1.2 | –
353.07 K | – | 53.29 ± 0.08
353.11 K | 54.07 ± 1.2 | –
358.45 K | – | 52.95 ± 0.08
358.5 K | 53.69 ± 1.2 | –
363.91 K | 53.27 ± 1.2 | –
364.37 K | – | 52.57 ± 0.08

Details | mass density [kg/m3]
308.26 K | 1103.45 ± 0.44
313.1 K | 1100.71 ± 0.44
318.25 K | 1097.5 ± 0.44
323.58 K | 1094.84 ± 0.44
328.52 K | 1091.95 ± 0.44
333.54 K | 1089.17 ± 0.44
338.03 K | 1086.64 ± 0.44
343.46 K | 1083.12 ± 0.44
348.39 K | 1080.73 ± 0.44
353.12 K | 1078.37 ± 0.44
358.51 K | 1075.69 ± 0.44
363.89 K | 1071.76 ± 0.44

CCn1cc[n+](C)c1.[Cl-] [1-ethyl-3-methylimidazolium chloride]
Details | mass density [kg/m3]
313.38 K | 1134.76 ± 1.2
318.3 K | 1132.06 ± 1.2
323.25 K | 1129.33 ± 1.2
328.1 K | 1126.5 ± 1.2
333.15 K | 1124.02 ± 1.1
338.1 K | 1120.96 ± 1.1
342.86 K | 1118.28 ± 1.1
347.66 K | 1115.32 ± 1.1
353.21 K | 1112.21 ± 1.1
359.06 K | 1109.07 ± 1.1
364.85 K | 1106.29 ± 1.1

surface tension liquid-gas [mN/m]
Details | Ring tensiometer | Wilhelmy Plate
333.2 K | 62.56 ± 1 | 62.6 ± 0.63
338.15 K | 62.12 ± 1 | –
338.24 K | – | 62.26 ± 0.63
343.38 K | 62.16 ± 1 | 61.82 ± 0.62
348.57 K | – | 61.51 ± 0.62
348.58 K | 61.59 ± 1 | –
353.3 K | 61.45 ± 1 | –
353.32 K | – | 61.1 ± 0.61
358.44 K | 60.8 ± 0.99 | –
358.5 K | – | 60.64 ± 0.61
364.76 K | 60.05 ± 0.98 | –
364.96 K | – | 60.2 ± 0.61

CCCCCCn1cc[n+](C)c1.[Cl-] [1-hexyl-3-methylimidazolium chloride]
surface tension liquid-gas [mN/m]
Details | Ring tensiometer | Wilhelmy Plate
303.19 K | 39.83 ± 0.73 | –
303.22 K | – | 39.37 ± 0.12
308.21 K | – | 39.15 ± 0.12
308.22 K | 39.58 ± 0.72 | –
312.93 K | – | 38.95 ± 0.12
312.95 K | 39.37 ± 0.72 | –
318.33 K | 39.1 ± 0.72 | 38.69 ± 0.12
323.1 K | – | 38.45 ± 0.12
323.12 K | 38.84 ± 0.72 | –
328.18 K | – | 38.17 ± 0.12
328.2 K | 38.54 ± 0.72 | –
333.27 K | – | 37.94 ± 0.12
333.31 K | 38.3 ± 0.71 | –
338.68 K | – | 37.66 ± 0.12
338.71 K | 37.97 ± 0.71 | –
343.01 K | – | 37.44 ± 0.12
343.06 K | 37.74 ± 0.71 | –
348.1 K | – | 37.16 ± 0.12
348.15 K | 37.52 ± 0.71 | –
353.53 K | – | 36.93 ± 0.12
353.63 K | 37.19 ± 0.71 | –
358.12 K | – | 36.68 ± 0.12
358.24 K | 37 ± 0.71 | –
363.07 K | – | 36.42 ± 0.12
363.17 K | 36.72 ± 0.7 | –

Details | mass density [kg/m3]
303.22 K | 1035.05 ± 0.29
308.25 K | 1032.18 ± 0.29
313 K | 1029.5 ± 0.29
318.38 K | 1026.54 ± 0.29
323.18 K | 1023.64 ± 0.29
328.31 K | 1020.97 ± 0.29
333.34 K | 1017.64 ± 0.29
338.73 K | 1014.46 ± 0.29
343.06 K | 1011.76 ± 0.29
348.19 K | 1009.28 ± 0.29
353.71 K | 1006.44 ± 0.29
358.14 K | 1004 ± 0.29
363.17 K | 1001.49 ± 0.29
